Test results taken from US20220105150A1, “AMPHIPATHIC ALPHA-HELICAL ANTIMICROBIAL PEPTIDES TREAT INFECTIONS BY GRAM-NEGATIVE PATHOGENS” (priority 2019, published 2022).
“And” between values parts separate entries of the source, which are not always exact repeats. Equal values may be shown once.

How the values were obtained:
human red blood cells = assay: Hemolytic activity on human red blood cells; settings: for HC50: 50% hemolysis of human red blood cells after 18 h at 37° C.; for HC50 Fold Decrease: same peptide with and without specificity determinants
Procedure: For comparison, the inventors also determined the hemolytic activity after 18 hours at 37° C. Hemolysis can be determined with red blood cells (RBC) from various species including human red blood cells (hRBC).
The coupling procedure used 5 equivalents of Fmoc-D-amino acid or Fmoc-L-amino acid and HCTU (O-(1H-6-chlorobenzotriazole-1-yl)-1,1,3,3-tetramethyluronium hexafluorophosphate) and 6-Cl-HOBt (1-hydroxy-6-chloro-benztriazole) at 4.5 equivalents in DMF (Fisher Scientific, Denver, Colo.) and N-diisopropylethylamine (DIPEA) 10 equivalents (Oakwood Products, Inc., Estill, S.C.) in N-methyl-2-pyrrolidinone (NMP) (Fisher Scientific, Denver, Colo.) with the first and second couplings at room temperature for 30 min each. The deprotection procedure (removal of Fmoc protecting group) was carried out by treatment of the resin with 0.1 M HOBt (1-hydroxybenzotriazole) in DMF with 20% piperidine for 30 min. […] The resin was removed by filtration and peptide was precipitated with ice-cooled ethyl ether on ice for 15 min. Ether was decanted, the peptide was washed twice with ether and redissolved in acetonitrile/water (1:1, with 0.2% TFA) and the solution lyophilized to obtain the crude peptide. • Analytical and Preparative Purification by Reversed-Phase Chromatography: Analytical RP-HPLC: Column, Luna C18 (2), 250×4.6 mm I.D., 5 μm particle size, 100 Å pore size from Phenomenex (Torrance, Calif.). Run conditions: linear AB gradient (1% acetonitrile/min, starting from 2% acetonitrile) at a flow-rate of 1 ml/min, where eluent A is 0.2% aq. TFA and eluent B is 0.18% TFA in acetonitrile; temperature, 30° C. Preparative RP-HPLC: Peptides were dissolved in 0.2% aq. TFA containing 2% acetonitrile to a final concentration of 10 mg/ml. Following filtration through a 0.45 μm Millipore filter and subsequently through a 0.22 μm filter, the peptide solutions were loaded onto the column via multiple 20-ml injections into a 20-ml injection loop at a flow-rate of 10 ml/min. Column, Luna C18 (2), 250×30 mm I.D., 5 um particle size, 100 Å pore size from Phenomenex. Run conditions: 2% acetonitrile/min gradient up to an acetonitrile concentration 10% below that required to elute the peptide during analytical RP-HPLC, then shallow gradient elution (0.05% or 0.1% acetonitrile/min depending on the complexity of impurities near the product of interest on the analytical run of the crude peptide) at a flow-rate of 10 ml/min (same eluents as shown above for analytical RP-HPLC); at room temperature. • Temperature Profiling of Peptides on Reversed-phase HPLC to Measure Dimerization and Oligomerization: Purified peptides were analyzed on an Agilent 1200 series liquid chromatograph for temperature profiling using a Zorbax 300 SB-C8 column (150 mm×2.1 mm I.D.; 5 μm particle size, 300 Å pore size) from Agilent Technologies. […] Temperature profiling was carried out on peptide mixtures run at each temperature in 2° C. increments from 5° C. to 41° C. and 10° C. increments from 5° C. to 75° C. Twenty minutes was allowed between runs for temperature equilibration. • Characterization of Helical Structure: The mean residue molar ellipticities of peptides were determined by circular dichroism (CD) spectroscopy, using a Jasco J-815 spectropolarimeter (Jasco Inc. Easton, Md., USA) at 5° C. under KP buffer (50 mM NaH2PO4/Na2HPO4/100 mM KCl, pH 7.0) as well as in the presence of an α-helix inducing solvent, 2,2,2-trifluoroethanol, TFE, (50 mM NaH2PO4/Na2HPO4/100 mM KCl, pH 7.0 buffer/50% TFE). A 10-fold dilution of an approximately 500 μM stock solution of the peptide analogs was loaded into a 0.1 cm quartz cell and its ellipticity scanned from 195 to 250 nm.

[1] = Helical structure by circular dichroism spectroscopy; assay type: physicochemical; settings: for Aqueous pH 7 [θ]222: 100 mM KCl, 50 mM Na2HPO4/NaH2PO4, pH 7.0; for Aqueous pH 7 [θ]222 / 50% TFE [θ]222: 222 nm; for 50% TFE [θ]222: aqueous buffer containing 50% trifluoroethanol; for Δ[Θ]222 TFE-aqueous: difference 50% TFE minus aqueous; for % Helix Induced: increase in molar ellipticity in the presence of 50% TFE; for Aqueous pH 7 % Helix: relative to molar ellipticity of the peptide in 50% TFE

SMILES	HC50 (human red blood cells)	HC50 Fold Decrease (human red blood cells)	Aqueous pH 7 [θ]222 [1]	50% TFE [θ]222 [1]	Δ[Θ]222 TFE-aqueous [1]	% Helix Induced [1]	Aqueous pH 7 % Helix [1]
CC(=O)N[C@H](CCCCN)C(=O)N[C@H](CC(C)C)C(=O)N[C@H](CCN)C(=O)N[C@H](CO)C(=O)N[C@H](CC(C)C)C(=O)N[C@H](CC(C)C)C(=O)N[C@H](CCN)C(=O)N[C@@H](C(=O)N[C@H](CC(C)C)C(=O)N[C@H](CO)C(=O)N[C@H](CCN)C(=O)N[C@H](C)C(=O)N[C@H](C)C(=O)N[C@H](C)C(=O)N[C@H](C)C(=O)N[C@H](C)C(=O)N[C@H](CC(C)C)C(=O)N[C@H](CCN)C(=O)N[C@@H](C(=O)N[C@H](CC(C)C)C(=O)N[C@H](CC(C)C)C(=O)N[C@H](CCN)C(=O)N[C@H](C)C(=O)N[C@H](CC(C)C)C(=O)N[C@H](CO)C(=O)N[C@H](CCN)C(N)=O)[C@H](C)O)[C@H](C)O [D86(K13A/K16A)-(Lys^1-6Dab-1), Ac-KL(Dab)SLL(Dab)TLS(Dab)AAAAAL(Dab)TLL(Dab)ALS(Dab)-amide]	20.0 μg/mL and 7.7 μM	>−96.4	2,308 mdeg cm^2/(dmol*res)	18,731 mdeg cm^2/(dmol*res)	16,423 mdeg cm^2/(dmol*res)	88%	12%
CC(=O)N[C@H](CCCCN)C(=O)N[C@H](CC(C)C)C(=O)N[C@H](CN)C(=O)N[C@H](CO)C(=O)N[C@H](CC(C)C)C(=O)N[C@H](CC(C)C)C(=O)N[C@H](CN)C(=O)N[C@@H](C(=O)N[C@H](CC(C)C)C(=O)N[C@H](CO)C(=O)N[C@H](CN)C(=O)N[C@H](C)C(=O)N[C@H](C)C(=O)N[C@H](C)C(=O)N[C@H](C)C(=O)N[C@H](C)C(=O)N[C@H](CC(C)C)C(=O)N[C@H](CN)C(=O)N[C@@H](C(=O)N[C@H](CC(C)C)C(=O)N[C@H](CC(C)C)C(=O)N[C@H](CN)C(=O)N[C@H](C)C(=O)N[C@H](CC(C)C)C(=O)N[C@H](CO)C(=O)N[C@H](CN)C(N)=O)[C@H](C)O)[C@H](C)O [D105(K13A/K16A)-(Lys^1-6Dap-1), Ac-KL(Dap)SLL(Dap)TLS(Dap)AAAAAL(Dap)TLL(Dap)ALS(Dap)-amide]	7.2 μg/mL and 2.9 μM	>−395.9	9,577 mdeg cm^2/(dmol*res)	18,038 mdeg cm^2/(dmol*res)	8,461 mdeg cm^2/(dmol*res)	47%	53%
